Experimental data reported in patent publication US11564394B2, “Distorted gold (I)-phosphine complexes and methods for use as antifungal agents” (University of Kentucky Research Foundation, priority 2019, dated 2023).
“And” between values parts separate entries of the source, which are not always exact repeats. Identical values can stand only once.

Key:
[1] = test system: C. auris AR Bank # 0384 (strain K); assay: MIC determination (broth microdilution); assay type: cell-based, Candida auris; conditions: strain K = C. auris AR Bank # 0384; MIC-0; 48 h (CAS read at 24 h); Table 1; also in Table 2
[2] = test system: C. auris AR Bank # 0386 (strain V); assay: MIC determination (broth microdilution); assay type: cell-based, Candida auris; conditions: strain V = C. auris AR Bank # 0386; MIC-0; 48 h (CAS read at 24 h)
[3] = test system: C. auris AR Bank # 0385 (strain IV); assay: MIC determination (broth microdilution); assay type: cell-based, Candida auris; conditions: strain IV = C. auris AR Bank # 0385; MIC-0; 48 h (CAS read at 24 h)
[4] = test system: C. albicans ATCC MYA-2876(S) (strain E); assay: MIC determination (broth microdilution); assay type: cell-based, Candida albicans; conditions: strain E = C. albicans ATCC MYA-2876(S); MIC-0; 48 h; listed as printed beside letter F
BEAS-2B = assay: Mammalian cytotoxicity assay (resazurin cell viability); assay type: cell-based; conditions: BEAS-2B (human bronchial epithelial); read-out: IC50 for mammalian cell lines
Description: (§1) For cytotoxicity assays, the human embryonic kidney cell line (HEK-293) was purchased from the ATCC. The human bronchial epithelial cell line (BEAS-2B), the human lung carcinoma cell line (A549), and the mouse macrophage cell line (J774A.1) were generous gifts from Prof. David K. Orren (University of Kentucky, Lexington, Ky.), Prof. Markos Leggas (University of Kentucky, Lexington, Ky.), and Prof. David J. Feola (University of Kentucky, Lexington, Ky.), respectively. A549, HEK-293, and BEAS-2B cells were cultured in Dulbecco's Modified Eagle's Medium (DMEM, catalog #VWRL0100, VWR, Chicago, Ill.) supplemented with 10% fetal bovine serum (FBS; from ATCC) and 1% penicillin/streptomycin (from ATCC) at 37° C. with 5% CO2. The J774A.1 cells were cultured in DMEM (catalog #30-2002, ATCC, Manassas, Va.), which was also supplemented with FBS and antibiotics and grown at 37° C. with 5% CO2.
(§2) To examine whether the compounds are safe for human cells, cytotoxicity assays were done against four mammalian cell lines: HEK-293, A549, BEAS-2B, and J774A.1 cells. […] HEK-293 and J774A.1 cells were plated at 1×10^4 cells/mL while A549 and BEAS-2B were plated at 3×10^3 cells/mL. Compounds were tested in concentrations ranging from 0.06 to 15.6 μg/mL with final concentration of DMSO at 0.5% (FIG. 4A-D).

A549 = assay: as above; assay type: cell-based; conditions: A549 (human lung carcinoma); read-out: IC50 for mammalian cell lines
Description: as §1, §2

J774A.1 = assay: as above; assay type: cell-based; conditions: J774A.1 (murine macrophage); read-out: IC50 for mammalian cell lines
Description: as §1, §2

HEK-293 = assay: as above; assay type: cell-based; conditions: HEK-293 (human embryonic kidney); read-out: IC50 for mammalian cell lines
Description: as §1, §2

[5] = test system: C. auris AR Bank # 0384 (strain K) pre-formed biofilm; assay type: cell-based, Candida auris; conditions: biofilm treated at 24 h, XTT
[6] = test system: C. glabrata ATCC 2001 (strain H); assay: MIC determination (broth microdilution); assay type: cell-based, Candida glabrata; conditions: strain H = C. glabrata ATCC 2001; MIC-0; 48 h at 35° C.
[7] = test system: C. glabrata ATCC 2001 (strain H) pre-formed biofilm; assay: Disruption of pre-formed biofilm (XTT); assay type: cell-based, Candida glabrata
[8] = test system: C. auris AR Bank # 0390 (strain L) biofilm; assay type: cell-based, Candida auris; conditions: treated at 0 h, XTT
[9] = test system: C. glabrata ATCC 2001 (strain H) biofilm; assay: Prevention of biofilm formation (XTT); assay type: cell-based, Candida glabrata; conditions: treated at 0 h
[10] = test system: C. krusei ATCC 6258 (strain I); assay: MIC determination (broth microdilution); assay type: cell-based; conditions: strain I = C. krusei ATCC 6258; MIC-0; 48 h; listed as split over r16 and r17 (r17 printed beside letter J)
[11] = test system: C. auris AR Bank # 0387 (strain VI); assay: MIC determination (broth microdilution); assay type: cell-based, Candida auris; conditions: strain VI = C. auris AR Bank # 0387; MIC-0; 48 h (CAS read at 24 h)
[12] = test system: C. neoformans ATCC MYA-85 (strain M); assay: MIC determination (broth microdilution); assay type: cell-based, Cryptococcus neoformans; conditions: strain M = C. neoformans ATCC MYA-85; MIC-0; 72 h at 35° C.
[13] = test system: C. auris AR Bank # 0383 (strain III); assay: MIC determination (broth microdilution); assay type: cell-based, Candida auris; conditions: strain III = C. auris AR Bank # 0383; MIC-0; 48 h (CAS read at 24 h)
[14] = test system: C. albicans ATCC 90819(R) (strain G); assay type: cell-based, Candida albicans; conditions: strain G = C. albicans ATCC 90819(R); MIC-0; 48 h; listed as printed without letter, below G
[15] = test system: C. neoformans CN1 (strain N); assay: MIC determination (broth microdilution); assay type: cell-based, Cryptococcus neoformans; conditions: MIC-0, 72 h at 35° C.
[16] = test system: F. graminearum 053 (strain T); assay type: cell-based, Fusarium graminearum; conditions: strain T = F. graminearum 053; MIC-0; room temperature, 5 days
[17] = test system: A. terreus ATCC MYA-3633 (strain R); assay type: cell-based, Aspergillus terreus; conditions: strain R = A. terreus ATCC MYA-3633; MIC-0; 72 h at 35° C.

bis-[1,2-bis[(2S,5S)-2,5-dimethylphospholano]benzene]gold(I) [Compound 4]
MIC [1]: 3.9 µg/mL and 3.96 µg/mL
MIC (in parentheses) [1]: 4.6 µM
MIC [2]: 1.95 µg/mL
MIC (in parentheses) [2]: 2.3 µM
MIC [3]: 1.95 µg/mL
MIC (in parentheses) [3]: 2.3 µM
MIC [4]: 0.98 µg/mL
MIC (in parentheses) [4]: 1.2 µM
IC50 (BEAS-2B): 2000 ± 300 nM
IC50 (A549): 4500 nM
IC50 (J774A.1): 1500 ± 100 nM
IC50 (HEK-293): 1900 ± 700 nM
Pre-formed biofilm SMIC90 [5]: 7.8 µg/mL
MIC [6]: 1.95 µg/mL
MIC (in parentheses) [6]: 2.3 µM
SMIC90 of pre-formed biofilm relative to MIC with planktonic cells [7]: 4 fold
Pre-formed biofilm SMIC90 ([7]; biofilm treated at 24 h, XTT): 7.8 µg/mL
Biofilm prevention SMIC90 [8]: 3.9 µg/mL
Biofilm prevention SMIC90 [9]: 3.9 µg/mL
MIC [10]: 1.95 µg/mL
MIC (in parentheses) [10]: 2.3 µM
MIC [11]: 1.95 µg/mL
MIC (in parentheses) [11]: 2.3 µM
MIC [12]: 0.98 µg/mL
MIC (in parentheses) [12]: 1.2 µM
MIC [13]: 1.95 µg/mL
MIC (in parentheses) [13]: 2.3 µM
MIC [14]: 0.98 µg/mL
MIC (in parentheses) [14]: 1.2 µM
MIC [15]: 0.98 µg/mL
MIC (in parentheses) [15]: 1.2 µM
MIC [16]: 3.9 µg/mL
MIC (in parentheses) [16]: 4.6 µM
MIC [17]: 1.95 µg/mL
MIC (in parentheses) [17]: 2.3 µM
